{
  "source": "paper PMC5075098",
  "about": "“Preclinical Evaluation of the Stability, Safety, and Efficacy of CD101, a Novel Echinocandin” (Antimicrobial Agents and Chemotherapy, 2016)",
  "key": {"[1]": {"assay": "Metabolic stability in liver microsomes", "details": "for t1/2, NADPH free / half-life in liver microsomes: 1 μM; for t1/2, NADPH free: up to 2 h at 37°C, LC-MS/MS, first-order decay fit; for half-life in liver microsomes: NADPH state not specified, 37°C; for half-life: liver microsomes", "procedure": "Metabolic stability was determined as described in reference. […] Following incubation, samples were quenched with ice-cold methanol or acetonitrile (ACN), containing an appropriate internal standard and centrifuged to remove precipitated protein, and the supernatants were analyzed to quantitate the remaining parent. […] Data were converted to the percentage remaining by dividing by the time zero concentration value. Data were fit to a first-order decay model to determine half-life. Intrinsic clearance was calculated from the half-life and the protein concentrations."}, "[2]": {"assay": "Plasma protein binding, ultracentrifugation", "format": "in vitro ADME", "details": "human, ∼500,000 × g 2.5 h at 37°C, LC-MS/MS, SEM, read-out: % of protein bound (SEM) (converted)", "procedure": "Ultracentrifugation ([15]) was used to compare human plasma protein binding of CD101 and anidulafungin. […] Following ultracentrifugation, the supernatant was transferred to a microtiter plate containing 50 μl plasma for matrix-matching purposes and quenched with 400 μl of cold acetonitrile (ACN) with 0.1% formic acid containing diclofenac as an internal standard. Quenched samples were centrifuged for 5 min at 10°C (e.g., 3,100 rpm [2,000 × g]) to sediment the precipitated proteins, and 50 μl supernatant was transferred to a microtiter plate containing 100 μl of water prior to analysis by LC-MS/MS. The percentage bound was the difference between 100% and the percentage free (the ratio of the concentration in supernatant to the total concentration)."}, "[3]": {"assay": "Plasma protein binding, rapid equilibrium dialysis", "format": "in vitro ADME, chimpanzee", "details": "pH 7.4, read-out: protein bound (converted)", "procedure": "Rapid equilibrium dialysis (RED) ([16]) was used to determine cross-species protein binding of CD101 in CD-1 mouse, Sprague-Dawley rat, cynomolgus monkey, chimpanzee, and human plasma. […] Dialysis buffer (350 μl of phosphate-buffered saline [PBS], pH 7.4, with 100 mM sodium phosphate) was loaded into the buffer (left) channel of the RED device. The device was agitated gently at 37°C for 4 h. Samples were placed into a new 96-well plate for matrix matching (25 μl of plasma added to the dialysis buffer aliquots or 25 μl of dialysis buffer to the plasma aliquots). […] Following centrifugation, 200 μl of the supernatant was transferred to a clean 96-well plate and evaporated to dryness at 37°C under nitrogen. Samples were reconstituted in 100 μl of 1:1 acetonitrile-water prior to analysis by LC-MS/MS. The percentage bound was calculated as the difference between 100% and the percentage free (the ratio of the concentration in supernatant to the concentration in plasma)."}, "[4]": {"assay": "Inhibition of recombinant CYP450 enzymes", "format": "in vitro ADME", "details": "recombinant CYP450 enzymes 1A2, 2B6, 2C8, 2C9, 2C19, 2D6, 3A4"}, "[5]": {"assay": "2-week repeat-dose toxicity and hepatotoxicity screening", "format": "in vivo, Sprague-Dawley rats", "procedure": "Dosing solutions were prepared in a vehicle comprising 5% mannitol containing 2.5% polysorbate 80 (Tween 80) in 0.3% acetic acid.\nAnimals were randomly assigned to dose groups and stratified by weight to achieve similar group mean body weights (males, 255 to 318 g; females, 192 to 215 g). Blood, urine, and liver samples (excised and preserved in 10% neutral buffered formalin) were obtained on day 15. Plasma liver enzyme levels were assessed. Liver tissues were processed to paraffin blocks and prepared for slides. Slides were stained with hematoxylin and eosin. Hematology data were collected using the Advia 120 hematology analyzer. Coagulation data were collected using the Diagnostica STA compact coagulation analyzer. Clinical chemistry data were collected using the AU400 chemistry analyzer. Qualitative and quantitative urinalysis was recorded using iRICELL 1500 UA analyzer. Clinical effects were assessed for determination of the maximum tolerated dose (MTD).\nStatistical evaluations were performed on in-life and clinical pathology numerical data to determine statistical significance following a decision tree. First, the homogeneity of the data was determined by Bartlett's test. If the data were homogeneous, a one-way analysis of variance was performed to assess statistical significance. If statistically significant differences between the means were found, Dunnett's test was used to determine the degree of significance from the control means (P < 0.05, P < 0.01, and P < 0.001). If the data were nonhomogeneous, the Kruskal-Wallis nonparametric analysis was performed to assess statistical significance. If statistically significant differences between the means were found (P < 0.05, P < 0.01, and P < 0.001), the Mann-Whitney U test was used to determine the degree of significance from the control means (P < 0.05, P < 0.01, and P < 0.001)."}, "C. albicans R303": {"test_system": "C. albicans R303", "details": "CLSI broth microdilution, read after 24 h at 35°C, prominent growth inhibition (∼50%)", "experimental": "(§1) Enumeration of MIC and MEC assay inoculum viable counts was performed by plating aliquots of the starting assay inoculum on Sabouraud dextrose agar."}, "[6]": {"details": "after 44 h; cited from earlier work", "excerpt": "CD101, a novel echinocandin being developed as a high-exposure, once-weekly intravenous (i.v.) formulation for the treatment and prevention of systemic fungal infections, was designed to be chemically and metabolically stable to avoid hepatotoxicity while retaining the antifungal activity of an echinocandin."}, "[7]": {"details": "4-week repeat-dose, ref Ong et al., submitted, cited from earlier work", "excerpt": "The studies described herein are part of a comprehensive series of safety, pharmacology, and toxicology studies of up to 4 weeks' duration as well as genetic toxicology studies, as required for an investigational new drug application. The results provide important insights for further research and development of CD101 and are best considered in this broader, developing context."}, "[8]": {"test_system": "A. fumigatus (ATCC 13073)", "assay": "MEC/MIC, CLSI broth microdilution", "details": "24 h at 35°C, rounded/compact hyphal morphology", "experimental": "as §1"}, "[9]": {"assay": "CYP450 inhibition in human liver microsomes", "details": "pH 7.4, IC50, human liver microsomes, 0.03 to 30 μM, 5 min at 37°C, pH 7.4, LC-MS/MS, duplicate", "experimental": "The final DMSO content in the reaction mixture was equal in all solutions used within an assay and was less than 0.2%. […] After incubation for 5 min at 37°C, the reactions were terminated by addition of methanol-containing internal standard (propranolol) for analytical quantification. The quenched samples were incubated at 4°C for 10 min and centrifuged at 4°C for 10 min."}, "[10]": {"test_system": "A. fumigatus (ATCC 13073)", "assay": "Neutropenic mouse model of A. fumigatus infection, survival", "details": "for survival: 10-day observation, n = 10/group", "experimental": "Animals were immunosuppressed by three i.p. injections of cyclophosphamide (the first injection at 6 mg/mouse 3 days before inoculation and the second and third injections at 2 mg/mouse on 1 and 4 days after inoculation). […] Dose administration started 1 and 7 h after infection. […] An increase of 50% or more in the survival rate of the active groups compared to the vehicle group indicated significant antifungal efficacy."}, "[11]": {"details": "CD101 2, 6, 20 mg/kg/day i.v. 14 days, rats"}},
  "note": "Read-outs that look alike come from different tables or passages of the source. Starred links: 1 amine or outer side, 2 acyl side, 3 side chain; linkers in the order of their positions; H or OH if unused. Positions of bridges follow the written chain, without caps; N, C: chain ends. Non-standard residues stand in square brackets, D forms with d. Residues, ends and D or L forms follow the SMILES beside them. *: point of attachment. Orn(4R-OH,5R-OCH2CH2NMe3+) = C[N+](C)(C)CCO[C@@H](N[*:3])[C@H](O)C[C@H](N[*:1])C(=O)[*:2]; pTerphenylCO(4''-OnC5H11) = CCCCCOc1ccc(-c2ccc(-c3ccc(C(=O)*)cc3)cc2)cc1; hTyr(3S-OH,4S-OH) = N[C@H](C(=O)O)[C@H](O)[C@@H](O)c1ccc(O)cc1; Pro(3S-OH,4S-Me) = C[C@H]1CN[C@H](C(=O)O)[C@H]1O; Hyp = O=C(O)[C@@H]1C[C@@H](O)CN1",
  "data": [
    {"smiles": "CCCCCOc1ccc(-c2ccc(-c3ccc(C(=O)N[C@H]4C[C@@H](O)[C@@H](OCC[N+](C)(C)C)NC(=O)[C@@H]5[C@@H](O)[C@@H](C)CN5C(=O)[C@H]([C@@H](C)O)NC(=O)[C@H]([C@H](O)[C@@H](O)c5ccc(O)cc5)NC(=O)[C@@H]5C[C@@H](O)CN5C(=O)[C@H]([C@@H](C)O)NC4=O)cc3)cc2)cc1", "note": "[CD101] ({pTerphenylCO(4''-OnC5H11)}-[Orn(4R-OH,5R-OCH2CH2NMe3+)]T[Hyp][hTyr(3S-OH,4S-OH)]T[Pro(3S-OH,4S-Me)]; lactam 1-C)", "values": [
      {"measurement": "t1/2, NADPH free", "setting": "[1]; human liver microsomes without NADPH", "value": ">240", "unit": "min"},
      {"measurement": "half-life in liver microsomes", "setting": "[1]; human microsomes", "value": "≥ 240", "unit": "min"},
      {"measurement": "half-life", "setting": "[1]; human", "value": "> 240", "unit": "min"},
      {"measurement": "t1/2, NADPH free", "setting": "[1]; monkey liver microsomes without NADPH", "value": ">240", "unit": "min"},
      {"measurement": "half-life in liver microsomes", "setting": "[1]; monkey microsomes", "value": "≥ 240", "unit": "min"},
      {"measurement": "half-life", "setting": "[1]; monkey", "value": "> 240", "unit": "min"},
      {"measurement": "microsomal CLint", "setting": "[1]; monkey, microsomes", "value": 2.1, "unit": "µL/min/mg"},
      {"measurement": "fraction unbound", "setting": "[2]; 1 μg/ml", "value": 0.02},
      {"measurement": "fraction unbound", "setting": "[2]; 5 μg/ml", "value": 0.017},
      {"measurement": "fraction unbound", "setting": "[3]", "value": 0.012},
      {"measurement": "IC50", "setting": "[4]", "value": "> 10", "unit": "µM"},
      {"measurement": "repeat-dose systemic or target organ toxicity", "setting": "[5]; 14-day i.v. infusion, rats, CD101 20 mg/kg/day, anidulafungin 40 mg/kg/day (comparable exposure)", "value": "did not appear to elicit any evidence of repeat-dose systemic or target organ toxicity"},
      {"measurement": "early deaths", "setting": "[5]; [11]", "value": "no early deaths"},
      {"measurement": "effects on body weight, hematology, coagulation, or urinalysis", "setting": "[5]; [11]", "value": "did not exhibit effects on body weight, hematology, coagulation, or urinalysis"},
      {"measurement": "increases in neutrophils", "setting": "[5]; CD101 2, 6, 20 mg/kg/day i.v. 14 days, rats, P ≤ 0.01, within normal limits, considered incidental", "value": "up to 31%"},
      {"measurement": "increases in reticulocytes, hemoglobin, hematocrit, activated partial thromboplastin time, BUN, sodium, total bilirubin, total protein, chloride, and globulin", "setting": "[5]; CD101 2, 6, 20 mg/kg/day i.v. 14 days, rats, P ≤ 0.05, within normal limits, considered incidental", "value": "less than 20%"},
      {"measurement": "microscopic changes in the liver", "setting": "[5]; day 15, H&E, CD101 2, 6, or 20 mg/kg/day, anidulafungin 40 mg/kg/day (some of the females)", "value": "no microscopic changes"},
      {"measurement": "MIC", "setting": "C. albicans R303", "value": 0.12, "unit": "µg/mL"},
      {"measurement": "% remaining in human plasma", "setting": "[6]", "value": 93, "unit": "%"},
      {"measurement": "no observed adverse effect level relative to the efficacious plasma exposure level", "setting": "[7]; cynomolgus monkeys", "value": 47, "unit": "times"},
      {"measurement": "no observed adverse effect level relative to the efficacious plasma exposure level", "setting": "[7]; rats", "value": 34, "unit": "times"},
      {"measurement": "MEC", "setting": "[8]", "value": 0.004, "unit": "µg/mL"},
      {"measurement": "IC50", "setting": "[9]; midazolam substrate (2.5 μM)", "value": 29, "unit": "µM"},
      {"measurement": "IC50", "setting": "[9]; testosterone substrate (50 μM)", "value": "> 30", "unit": "µM"},
      {"measurement": "survival", "setting": "[10]; 0.2 mg/kg i.v. BID for 5 days", "value": 80, "unit": "%"},
      {"measurement": "survival", "setting": "[10]; 1 mg/kg i.v. BID for 5 days", "value": 90, "unit": "%"},
      {"measurement": "survival", "setting": "[10]; 5 mg/kg i.v. BID for 5 days", "value": 100, "unit": "%"},
      {"measurement": "10-day survival rate compared to the vehicle group", "setting": "[10]; BID for 5 days, CD101 all dose groups and anidulafungin 1 and 5 mg/kg i.v. (P < 0.05), amphotericin B 0.3 mg/kg i.p.", "value": "significant increase"}
    ]}
  ]
}
